Read-outs that look alike come from different tables or passages of the source.

The target in series [1] is T1, TNAP (Homo sapiens, UniProt P05186).
T1 construct: made in house; host or cells: COS-1 cells, transient expression; dialyzed serum-free conditioned medium
T1 sequence (P05186 18-501 limits assumed): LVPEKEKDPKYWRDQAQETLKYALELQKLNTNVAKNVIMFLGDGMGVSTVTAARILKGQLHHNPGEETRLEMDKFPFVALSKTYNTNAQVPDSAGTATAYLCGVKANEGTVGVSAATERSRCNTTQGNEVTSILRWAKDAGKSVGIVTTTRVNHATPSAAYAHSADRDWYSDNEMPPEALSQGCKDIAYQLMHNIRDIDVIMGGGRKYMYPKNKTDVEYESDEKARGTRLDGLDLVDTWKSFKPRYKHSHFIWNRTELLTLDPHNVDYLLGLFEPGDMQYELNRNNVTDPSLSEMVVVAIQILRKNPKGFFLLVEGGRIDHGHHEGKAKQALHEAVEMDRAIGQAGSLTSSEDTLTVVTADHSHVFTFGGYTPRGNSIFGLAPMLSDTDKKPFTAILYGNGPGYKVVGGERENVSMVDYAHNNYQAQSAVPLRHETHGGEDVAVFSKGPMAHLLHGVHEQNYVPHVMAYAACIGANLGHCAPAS
Further details: method as in PMID 17638573. The following applies: existing inhibitors of TNAP; read-out: TNAP- Color Ki; cited from earlier work.

Series [2] addresses T2, human PLAP (Homo sapiens, UniProt P05187).
T2 construct: made in house; host or cells: COS-1 cells, transient expression; dialyzed serum-free conditioned medium
The series is described as follows: PLAP luminescent assay (CDP-star). Format: biochemical. On the procedure:
(§1) Selectivity of Primary Actives Against other Phosphatases: To assess the selectivity of compounds across the alkaline phosphatase family, luminescent assays were developed for human PLAP and human IAP with the same CDP-Star reagent.
(§2) Development of the novel luminescent TNAP assay using CDP-star substrate and detailed protocol of its application for HTS is described in more detail elsewhere. […] Briefly, the assay was 50 μM CDP-star substrate in assay buffer containing 100 mM DEA-HCl (pH 9.8), 1 mM MgCl2, and 20 μM ZnCl2. The luminescence signal was measured after a 30-min incubation at room temperature on an EnVision plate reader (PerkinElmer, Waltham, MA). […] Detailed protocols can be found in the respective AIDs, however, the final buffer conditions were 100 mM DEA, pH 9.8, 1.0 mM MgCl2, 0.02 mM ZnCl2 for both PLAP and IAP.

Series [3] deals with T1, TNAP. The experiment in a line: TNAP luminescent assay (CDP-star substrate, 100 mM DEA). Format: biochemical. The protocol: as §2
The target in series [4] is GAPDH (Homo sapiens, UniProt P04406). The series is described as follows: Glyceraldehyde-3-phosphate dehydrogenase (GAPDH) assay. Format: biochemical. On the procedure: (§3) An additional sub-micromolar IAP assay using p-nitrophenol phosphate (pNPP) as substrate was developed at the CPCCG and was utilized for hit confirmation. Lead compounds were tested in a panel of assays consisting of: (1) TNAP luminescent assay (substrate: CDP-star); (2) TNAP colorimetric assay (substrate: pNPP); (3) PLAP luminescent assay (substrate: CDP-star); (4) IAP luminescent assay (substrate: CDP-star); (5) IAP colorimetric assay (substrate: pNPP); (6) solubility and (7) glyceraldehyde-3-phosphate dehydrogenase (GAPDH) assay. The latter two assays are designed to identify compounds that are likely to interfere with the assay components and would appear as non-specific inhibitors. Our approach to exploring the SAR for the IAP inhibitor series is shown graphically in Figure 8.
The National Institutes of Health (NIH) Molecular Libraries Small Molecule Repository (MLSMR, http://www.mli.nih.gov/mlsmr) supplied the compound library. The MLSMR, funded by the NIH, is responsible for the selection of small molecules for HTS screening, their purchase and quality control (QC) analysis, library maintenance, and distribution within the NIH Molecular Libraries Screening Center Network (MLSCN, http://www.mli.nih.gov/mlscn). Both MLSMR and MLSCN are parts of the Molecular Libraries Initiatives (MLI, http://nihroadmap.nih.gov/molecularlibraries) under the NIH Roadmap Initiatives (www.nihroadmap.nih.gov). MLSMR compounds are acquired from commercial and in part from academic and government sources and are selected based on the following criteria: samples are available for resupply in 10-mg quantity, are at least 90% pure, have acceptable physicochemical properties, and contain no functional groups or moieties that are known to generate artifacts in HTS (http://mlsmr.glpg.com/). Compounds are selected to represent diversified chemical space with clusters of closely related analogs around them to aid in the HTS-based structure-activity relationship (SAR) analysis. […]

Details of series [5]: method as in PubChem. The following applies: assays deposited in PubChem; ref PubChem; cited from earlier work.
In series [6] the target is T1, TNAP. The experiment in a line: TNAP colorimetric assay (pNPP substrate, OD405, 1M DEA). In kind it is biochemical. The following applies: unit not given in Table 8; n=6; read-out: TNAP-Color. The protocol: The colorimetric TNAP assay was performed as previously described with slight modifications.
Series [7] deals with T3, IAP (Homo sapiens, UniProt P09923).
T3 construct: made in house; host or cells: COS-1 cells, transient expression; dialyzed serum-free conditioned medium
T3 sequence (P09923 20-503 limits assumed): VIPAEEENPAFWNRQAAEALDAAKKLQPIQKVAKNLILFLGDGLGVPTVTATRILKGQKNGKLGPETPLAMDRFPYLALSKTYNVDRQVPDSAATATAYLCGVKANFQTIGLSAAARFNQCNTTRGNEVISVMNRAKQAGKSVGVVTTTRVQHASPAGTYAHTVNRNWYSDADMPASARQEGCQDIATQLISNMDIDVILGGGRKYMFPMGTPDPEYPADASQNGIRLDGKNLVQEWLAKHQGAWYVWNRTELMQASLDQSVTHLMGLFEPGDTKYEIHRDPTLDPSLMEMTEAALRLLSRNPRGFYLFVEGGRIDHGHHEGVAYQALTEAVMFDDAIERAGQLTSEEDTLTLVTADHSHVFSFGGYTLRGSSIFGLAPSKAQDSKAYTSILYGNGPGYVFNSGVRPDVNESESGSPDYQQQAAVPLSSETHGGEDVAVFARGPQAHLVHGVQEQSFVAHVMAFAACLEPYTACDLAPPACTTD
The experiment in a line: IAP colorimetric assay (pNPP). Format: biochemical. The note with it: unit not given in Table 8; n=7; read-out: IAP-Color. On the procedure: as §3

Series [8] has as its system CYP2C9. Further details: method as in PubChem. The note with it: @ 5 µM; ref PubChem; cited from earlier work.
Series [9] is described as follows: Solubility in aqueous solutions. The following applies: read-out: concentrations at which compound is soluble. Format: physicochemical. On the procedure:
as §3
The National Institutes of Health (NIH) Molecular Libraries Small Molecule Repository (MLSMR, http://www.mli.nih.gov/mlsmr) supplied the compound library. […] MLSMR compounds are acquired from commercial and in part from academic and government sources and are selected based on the following criteria: samples are available for resupply in 10-mg quantity, are at least 90% pure, have acceptable physicochemical properties, and contain no functional groups or moieties that are known to generate artifacts in HTS (http://mlsmr.glpg.com/). […]

Series [10] deals with CYP2C19. Further details: method as in PubChem. The following applies: @ 5 µM; ref PubChem; cited from earlier work.
Series [11] has as its target T3, IAP. The series is described as follows: IAP luminescent assay (CDP-star). Format: biochemical. On the procedure: as §1, §2
The nature of series [12]: Stability in rat liver microsomes (RLM). In kind it is in vitro ADME. The following applies: 20-minute incubation. A general note: Liver microsomes are vesicles of endoplasmic reticulum, rich in cytochrome P450 enzymes.
The test system of series [13] is primary calvarial osteoblast cultures. The series is described as follows: Calcification in primary calvarial osteoblast cultures. Format: cell-based, mouse. The following applies: 30 µM, osteoblasts of WT mice cultured 19 days. The protocol:
Figure 5 Suppression of calcification by CID-2931238 in primary calvarial osteoblast cultures. Osteoblasts from calvaria bones of WT mice were cultured for 19 days. Media supplemented with 50 µg/mL ascorbic acid and 10 mM β-glycerophosphate were renewed every second or third day (total seven medium changes). The concentration of each compound was maintained at 30 µM. RAU = relative absorbance units.

GAPDH, sequence (P04406 whole entry, species assumed): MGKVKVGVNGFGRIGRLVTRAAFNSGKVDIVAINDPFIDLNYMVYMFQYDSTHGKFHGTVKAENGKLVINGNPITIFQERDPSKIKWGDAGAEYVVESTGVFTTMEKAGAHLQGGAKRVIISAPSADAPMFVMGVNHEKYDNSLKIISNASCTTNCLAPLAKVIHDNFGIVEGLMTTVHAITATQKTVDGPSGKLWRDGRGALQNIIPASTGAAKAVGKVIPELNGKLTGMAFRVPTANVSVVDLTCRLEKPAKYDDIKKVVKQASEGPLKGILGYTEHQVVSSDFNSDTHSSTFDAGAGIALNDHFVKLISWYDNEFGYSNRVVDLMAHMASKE
T2 sequence (P05187 23-506 limits assumed): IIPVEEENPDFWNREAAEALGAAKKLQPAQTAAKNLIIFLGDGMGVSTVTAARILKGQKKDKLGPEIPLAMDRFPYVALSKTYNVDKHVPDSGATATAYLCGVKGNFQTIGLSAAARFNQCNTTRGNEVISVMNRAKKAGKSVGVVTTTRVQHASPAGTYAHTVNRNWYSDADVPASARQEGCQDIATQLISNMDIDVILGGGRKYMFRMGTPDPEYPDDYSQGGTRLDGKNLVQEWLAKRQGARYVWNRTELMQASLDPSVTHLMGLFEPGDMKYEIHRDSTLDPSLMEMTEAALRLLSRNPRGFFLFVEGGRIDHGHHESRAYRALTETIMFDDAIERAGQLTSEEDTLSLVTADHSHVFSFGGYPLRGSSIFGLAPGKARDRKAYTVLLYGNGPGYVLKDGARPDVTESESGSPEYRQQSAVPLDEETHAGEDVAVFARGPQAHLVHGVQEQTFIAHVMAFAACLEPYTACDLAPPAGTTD

By Ki is commonly meant a measure of affinity in units of concentration, obtained from inhibition or displacement. For `Cn1cnnc1Sc1nc(Nc2ccccc2)nc(Nc2ccccc2)n1` [MLS-5804079], the inhibition constant Ki in series [1] was 6.5 µM.
For the compound `O=C(NCCO)c1cc(-c2ccc(Cl)c(Cl)c2Cl)n[nH]1` [MLS-0146291], in series [2] (at or below 10 µM), the “inhibition of PLAP” value is given as “did not show any inhibition”. In addition, the “selectivity index against the closest counter-targets (PLAP, GAPDH)” value in series [3] is reported as > 2,000 fold. The IC50 in series [3] (TNAP, read-out: IC50 (Figure 6, pyrazole series optimization)) came to 5 nM; in series [3] (read-out: TNAP IC50, luminescent assay) it was 5.19 nM. Besides, the “inhibition of GAPDH” value in series [4] (at or below 10 µM) was “did not show any inhibition”.
For the compound `O=C1C2CC=CCC2C(=O)N1c1nc(-c2ccccc2)n[nH]1` (stereo not shown) [CID-2946732], the IC50 in [2] (unit not given in Table 8, n=3, read-out: PLAP-Lumi) was 4.81 µM; in series [3] (phtalimide triazole series, read-out: IC50 TNAP- Lumi), 800 nM; in series [3] (unit not given in Table 8, n=7, read-out: TNAP-Lumi), 795 nM; in [6], more than 100 µM; in series [7] it was 1380 nM; in series [11] (phtalimide triazole series, read-out: IC50 IAP-Lumi), 120 nM. The IC50 in [11] (unit not printed in Table 8 ([…]), n=7, read-out: IAP-Lumi) was determined as 122 nM. Also, in series [5], the cytotoxicity entry was “no cytotoxicity”. Moreover, in series [8], the 2C9 is 92.5% I @. In [9], the solubility is less than 25 µM. Moreover, in series [4], the “effect on GAPDH activity” value is “no effect”. Further, the 2C19 in series [10] was 79.6% I @. Moreover, in [11], the “mode of IAP inhibition versus the CDP-star substrate” value is “non-competitive”. In series [11], the “potency relative to all other existing small-molecule inhibitors of IAP” value is > 6,500 fold. For the same compound, the “selectivity for IAP over TNAP” value in series [11] is on record as 7 fold.
On to `COc1ccc(OC)c(S(=O)(=O)Nc2cnc3ccccc3c2)c1` [MLS-0038949], for which, in series [12], the “compound remaining in rat liver microsomes” value is recorded as “virtually all-of-the compound remained”. In series [2] (at or below 100 µM), the “inhibition of PLAP” value is “did not show any inhibition”. For the same compound, the IC50 was more than 100 µM in series [2] (read-out: Selectivity Panel IC50 PLAP) and more than 100000 nM in [11] (read-out: Selectivity Panel IC50 IAP). For the same compound, the cytotoxicity entry in series [5] was “no cytotoxicity”. Besides, the solubility in [9] was less than 25 µM. For the same compound, the “effect on GAPDH activity” value in series [4] was “no effect”. Moreover, the inhibition of mineralization result in series [13] is reported as “completely inhibited mineralization”. Besides, the “inhibition of IAP” value in series [11] (at or below 100 µM) was “did not show any inhibition”.
`O=C(c1ccccc1)C(Sc1nnc[nH]1)c1ccccc1` (stereo not shown) [MLS-5361418]: in series [1], the Ki is 5.6 µM.
